Results as given in US11591323B2, “Muscarinic agonists as non-steroidal and non-opioid analgesics and methods of use thereof” (Barry University, priority 2019, dated 2023).
Like-named read-outs stand apart in the source and are kept apart here.

Test system: rat aorta smooth muscle cells (mainly M2, lesser M3)
Test: cAMP level in primary culture of rat aorta smooth muscle cells
Type: cell-based
Experimental: Effects of compounds 6A and 7A on both cAMP and IPX levels were also measured in primary cultures of rat aorta smooth muscle cells that express mainly M2 and to a lesser extent M3 receptors (FIG. 6). […] Receptor expression levels are far lower in tested native tissues than in transfected cell lines and vary among tissues, being highest in the striatum and lowest in the submaxillary gland. Relative expression levels of G-proteins are also known to vary among tissues and cell lines. Thus, it is great to see that the pharmacological profile of the new compounds is conserved despite these variations.
Cell culture and membrane preparation: Chinese hamster ovary (CHO) cells stably transfected with the genes of individual human variants of muscarinic receptors were purchased from Missouri S&T cDNA Resource Center (Rolla, Mo., USA). Fresh primary cell culture of smooth muscle cells (SMC) from rat aorta prepared as previously described was kindly provided by Dr. Lucie Bačáková. Primary culture of SMCs was grown to confluency in 75 cm^2 flasks in Dulbecco's modified Eagle's medium supplemented with 10% fetal bovine serum. Up to 6-times, 2 million of cells were sub-cultured. Cell cultures and crude membranes from CHO cells were prepared as described previously (Boulos et al., Chem Biol Drug Des 1-12, 2017). Cells were grown to confluency in 75 cm^2 flasks in Dulbecco's modified Eagle's medium supplemented with 10% fetal bovine serum and 2 million of cells were subcultured in 100 mm Petri dishes. Medium was supplemented with 5 mM butyrate for the last 24 hours of cultivation to increase receptor expression. When needed, cells were cultivated with pertussis toxin at a final concentration of 25 ng/ml for the 24 hours. Cells were detached by mild trypsinization on day 5 after subculture. Detached cells were washed twice in 50 ml of phosphate-buffered saline and 3 min centrifugation at 250×g. Washed cells were suspended in 20 ml of ice-cold incubation medium (100 mM NaCl, 20 mM Na-HEPES, 10 mM MgCl2, pH=7.4) supplemented with 10 mM EDTA and homogenized on ice by two 30 sec strokes using Polytron homogenizer (Ultra-Turrax; Janke & Kunkel GmbH & Co. KG, IKA-Labortechnik, Staufen, Germany) with a 30-sec pause between strokes. Cell homogenates were centrifuged for 30 min at 30,000×g. Supernatants were discarded, pellets suspended in fresh incubation medium, incubated on ice for 30 minutes and centrifuged again. Resulting membrane pellets were kept at −80° C. until assayed within 10 weeks at a maximum.
Measurements of the production of cAMP and inositol phosphates: Levels of second messengers cAMP and inositol phosphates were determined in radiochemical chromatography assays as described previously. To determine level of cAMP, cells in suspension were pre-incubated for 1 h with 0.4 μM [^3H]adenine, washed, and incubated for 10 min in the presence of isobutylmethylxanthine and 10 μM forskolin. […] Incubation was ended by addition of 0.2 ml of 2.5 M HCl to the samples. Samples were applied to alumina columns (1.5 g of alumina per column), washed with 2 ml ammonium acetate (pH=7.0) and eluted from columns with 4 ml ammonium acetate and measured by liquid scintillation spectrometry. […] For this purpose, new CHO cell lines stably expressing promiscuous G15 G-protein and M2 or M4 receptor were generated by transfection with pCMV/hygro vector and hygromycin selection. To determine the rate of formation of inositol phosphates IPX, suspended cells were pre-incubated with 0.1 μM [^3H]myo-inositol for 60 min, washed, and incubated with 10 mM LiCl for 15 min. […] The incubation was stopped by addition of 0.5 ml of chloroform methanol HCl mixture (2:1:0.1). […]

SMILES | Maximal inhibition of cAMP synthesis | cAMP level (in words) | Maximal inhibition of cAMP synthesis (in words)
C[N+](C)(C)CCOC(N)=O [carbachol, reference compound] | about 40% | transient decrease in cAMP level | 
C1=CCN(Cc2cccs2)CC1.Cl [Compound 6A, 1-[(thiophen-2-yl)methyl]-1,2,3,6-tetrahydropyridin-1-ium chloride] | about 40% | only inhibited cAMP synthesis | the same as inhibition by carbachol
C[N+]1(Cc2cccs2)CC=CCC1.[I-] (centres unmarked) [Compound 7A, 1-methyl-1-[(thiophen-2-yl)methyl]-1,2,3,6-tetrahydropyridin-1-ium iodide] | about 40% | only inhibited cAMP synthesis | the same as inhibition by carbachol
